Like-named read-outs stand apart in the source and are kept apart here.

These results are taken from patent US20170056423A1 (Gilead Sciences, Inc., priority 2012, published 2017).

Data set [1] addresses uridine glucuronosyltransferase 1A1 (Homo sapiens, UniProt P22309). Put plainly: UGT1A1 inhibition by cobicistat. In kind it is in vitro ADME.
Data set [2] has as its system cytochrome P450, UGT1A1, or P-glycoprotein. Briefly: xenobiotic receptor transactivation and human hepatocyte induction studies. Format: in vitro ADME. The note with it: at up to 30 μM.
The subject of data set [3] is transporters including P-glycoprotein, MRP1, and MRP2. Put plainly: permeability assays for transporter interaction. In kind it is in vitro ADME.
Another data set deals with CYP2B6 (Homo sapiens, UniProt P20813). Put plainly: CYP2B6 inhibition. As to conditions: similar potency to ritonavir. Format: in vitro ADME.
Sequence of CYP2B6 (P20813 whole entry): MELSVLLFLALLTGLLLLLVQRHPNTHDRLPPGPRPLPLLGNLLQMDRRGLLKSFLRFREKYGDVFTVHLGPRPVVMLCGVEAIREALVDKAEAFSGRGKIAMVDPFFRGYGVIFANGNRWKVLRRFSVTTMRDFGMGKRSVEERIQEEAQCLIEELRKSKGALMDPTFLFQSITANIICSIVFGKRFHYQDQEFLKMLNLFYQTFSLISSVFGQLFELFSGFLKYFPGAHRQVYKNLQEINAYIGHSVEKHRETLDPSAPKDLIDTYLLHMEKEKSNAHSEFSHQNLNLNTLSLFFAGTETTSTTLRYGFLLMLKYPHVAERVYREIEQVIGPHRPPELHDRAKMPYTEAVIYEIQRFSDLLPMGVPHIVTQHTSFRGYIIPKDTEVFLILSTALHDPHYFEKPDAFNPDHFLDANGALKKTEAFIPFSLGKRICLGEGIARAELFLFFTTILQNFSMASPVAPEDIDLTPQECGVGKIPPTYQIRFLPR
For a further data set, the target named is CYP2C9 (Homo sapiens, UniProt P11712). Put plainly: CYP2C9 inhibition. In kind it is in vitro ADME.
Sequence of CYP2C9 (P11712 whole entry): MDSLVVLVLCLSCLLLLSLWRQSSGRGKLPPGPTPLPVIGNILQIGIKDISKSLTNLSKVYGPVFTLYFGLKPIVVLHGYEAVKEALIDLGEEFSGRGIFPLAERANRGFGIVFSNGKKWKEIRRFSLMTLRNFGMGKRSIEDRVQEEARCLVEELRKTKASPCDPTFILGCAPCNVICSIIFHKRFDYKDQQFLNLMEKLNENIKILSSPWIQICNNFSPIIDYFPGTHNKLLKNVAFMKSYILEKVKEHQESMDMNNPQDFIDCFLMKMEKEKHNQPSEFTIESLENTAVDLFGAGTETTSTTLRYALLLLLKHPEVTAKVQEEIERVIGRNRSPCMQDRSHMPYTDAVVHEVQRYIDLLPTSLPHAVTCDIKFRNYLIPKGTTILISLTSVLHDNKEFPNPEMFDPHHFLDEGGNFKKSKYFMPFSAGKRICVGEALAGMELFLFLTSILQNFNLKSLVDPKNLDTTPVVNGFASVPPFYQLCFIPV
The next data set deals with CYP2C8 (Homo sapiens, UniProt P10632). Briefly: CYP2C8 inhibition. In kind it is in vitro ADME.
Sequence of CYP2C8 (P10632 whole entry): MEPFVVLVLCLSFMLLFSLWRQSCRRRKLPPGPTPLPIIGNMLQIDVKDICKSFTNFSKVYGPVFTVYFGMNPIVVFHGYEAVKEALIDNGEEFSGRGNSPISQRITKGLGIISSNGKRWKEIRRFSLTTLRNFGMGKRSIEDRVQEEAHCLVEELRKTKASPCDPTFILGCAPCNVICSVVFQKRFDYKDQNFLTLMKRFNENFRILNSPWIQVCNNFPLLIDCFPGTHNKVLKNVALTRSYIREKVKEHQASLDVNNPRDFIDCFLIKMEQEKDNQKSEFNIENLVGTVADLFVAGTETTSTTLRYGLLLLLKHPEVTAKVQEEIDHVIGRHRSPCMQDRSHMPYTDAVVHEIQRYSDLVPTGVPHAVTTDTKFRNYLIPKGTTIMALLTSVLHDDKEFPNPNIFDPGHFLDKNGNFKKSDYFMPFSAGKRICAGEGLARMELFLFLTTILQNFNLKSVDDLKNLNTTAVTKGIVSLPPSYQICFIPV
Data set [4] deals with T1, Pgp (multidrug resistance protein 1; MDR1) (Homo sapiens, UniProt P08183).
T1 construct: expressed in transfected cells; host or cells: MDCKII (Madin-Darby canine kidney) cells, MDCKII-MDR1
Briefly: Pgp substrate assay, bidirectional permeability in MDCKII-MDR1 cells. In kind it is in vitro ADME. As to conditions: 10 μM, MDCKII-MDR1 vs MDCKII-WT, ± CSA. On the procedure: (§1) Pgp and BCRP substrate assays in transfected MDCKII cells: MDCKII cells were grown to confluence over 4-6 days on 24-well PET transwell plates (BD Biosciences). The same buffers were used in the donor and receiver wells as described above for caco-2 studies. Experiments were conducted as described above for caco-2 transepithelial transport studies and samples analyzed by LC/MS/MS. Similar quality control and acceptance criteria were used as those described above for caco-2 studies. TEER values and the permeability of lucifer yellow, atenolol, and propranolol were determined to meet acceptance criteria for each batch of assay plates. Efflux ratios were determined to be at least 3-fold higher in transfected versus nontransfected monolayers for the model Pgp substrate vinblastine and BCRP substrate prazosin.
(§2) Data analysis: The 50% inhibition constants (IC50) values for transporters in the fluorescent accumulation studies done in MDCKII cells, defined as the test article concentration needed to inhibit the maximal transporter specific transport by 50%, were calculated using nonlinear curve fitting of inhibition versus concentration to a sigmoidal curve with a variable Hill coefficient using GraphPad Prism 5 (GraphPad Software Inc., San Diego, Calif.). […]

The next data set deals with caco-2 cell monolayers. Briefly: bidirectional permeability of HIV protease inhibitors and GS-7340 through caco-2 monolayers. Format: in vitro ADME. The note with it: COBI 90 μM, GS-7340 10 μM, over 2 hours. Background: Caco-2 monolayers are a common model of the intestinal barrier.
A further data set has as its target CYP2D6 (Homo sapiens, UniProt P10635). Put plainly: CYP2D6 inhibition. Format: in vitro ADME.
A further data set addresses T2, Pgp (Homo sapiens, UniProt P08183).
T2 construct: expressed in transfected cells; host or cells: MDCKII (Madin-Darby canine kidney) cells, MDCKII-MDR1
Briefly: Pgp inhibition assay, calcein AM accumulation in MDCKII-MDR1 cells. In kind it is cell-based. As to the method:
(§3) Pgp and BCRP inhibition assays in transfected Madin-Darby canine kidney (MDCKII) cells: Inhibition of Pgp-mediated transport was studied using the Pgp substrate calcein AM and MDCKII cells transfected with the human MDR1 (ABCB1) gene (encoding Pgp). Similarly, inhibition of BCRP-mediated transport was studied using the BCRP substrate Hoechst 33342 and MDCKII cells transfected with the human ABCG2 gene (encoding BCRP). Briefly, MDCKII cells were seeded in 96-well black cell culture plates with clear bottoms at a density of 5×10^4 cells/well and grown to confluence overnight. Test compounds were diluted in cell culture medium containing 10 μM Hoechst 33342 and incubated for 3 hours with MDCKII-BCRP and nontransfected cells. Following removal of media containing Hoechst 33342 and test compound, cells were washed twice with warm medium and lysed at room temperature for 5-10 minutes in a buffer containing 20 mM Tris-HCl pH 9.0 and 0.4% Triton X-100. Wells were analyzed for Hoechst 33342 fluorescence at an excitation of 353 nm and an emission of 460 nm. […]

The next data set has as its target CYP1A2 (Homo sapiens, UniProt P05177). Briefly: CYP1A2 inhibition. In kind it is in vitro ADME.
The target in a further data set is CYP2C19 (Homo sapiens, UniProt P33261). Put plainly: CYP2C19 inhibition. Format: in vitro ADME.
Sequence of CYP2C19 (P33261 whole entry): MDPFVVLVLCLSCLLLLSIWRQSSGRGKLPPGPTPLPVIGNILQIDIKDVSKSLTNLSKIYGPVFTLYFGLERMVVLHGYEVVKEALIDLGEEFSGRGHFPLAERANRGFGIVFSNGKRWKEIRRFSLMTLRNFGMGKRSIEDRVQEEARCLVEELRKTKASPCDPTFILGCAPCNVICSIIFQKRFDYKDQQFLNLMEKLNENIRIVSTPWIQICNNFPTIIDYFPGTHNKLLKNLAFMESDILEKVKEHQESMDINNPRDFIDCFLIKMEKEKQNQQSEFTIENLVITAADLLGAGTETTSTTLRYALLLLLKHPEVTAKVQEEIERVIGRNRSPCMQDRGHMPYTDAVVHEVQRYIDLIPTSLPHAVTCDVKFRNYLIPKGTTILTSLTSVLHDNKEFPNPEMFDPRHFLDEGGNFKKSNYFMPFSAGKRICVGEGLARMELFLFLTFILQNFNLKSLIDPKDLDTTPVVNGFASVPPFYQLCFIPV
The target in data set [5] is T3, BCRP (Homo sapiens, UniProt Q9UNQ0).
T3 construct: expressed in transfected cells; host or cells: MDCKII (Madin-Darby canine kidney) cells, MDCKII-ABCG2 / MDCKII-BCRP
T3 sequence (Q9UNQ0 whole entry): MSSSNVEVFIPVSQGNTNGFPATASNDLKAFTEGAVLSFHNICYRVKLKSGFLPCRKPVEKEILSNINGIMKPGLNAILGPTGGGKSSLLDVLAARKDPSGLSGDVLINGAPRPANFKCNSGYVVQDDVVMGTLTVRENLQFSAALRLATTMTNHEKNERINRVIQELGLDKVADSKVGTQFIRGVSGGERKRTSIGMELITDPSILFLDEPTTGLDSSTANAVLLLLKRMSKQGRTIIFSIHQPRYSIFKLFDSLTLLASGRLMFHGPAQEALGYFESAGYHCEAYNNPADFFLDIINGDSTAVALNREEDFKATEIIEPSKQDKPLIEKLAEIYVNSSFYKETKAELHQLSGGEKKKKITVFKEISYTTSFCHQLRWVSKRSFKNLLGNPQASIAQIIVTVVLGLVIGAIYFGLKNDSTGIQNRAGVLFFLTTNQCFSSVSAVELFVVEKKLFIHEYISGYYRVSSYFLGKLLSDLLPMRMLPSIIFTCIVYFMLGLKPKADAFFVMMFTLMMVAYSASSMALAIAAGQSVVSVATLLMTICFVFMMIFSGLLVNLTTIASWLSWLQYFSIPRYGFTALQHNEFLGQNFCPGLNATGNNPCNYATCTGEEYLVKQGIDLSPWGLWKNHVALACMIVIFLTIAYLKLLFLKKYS
Put plainly: BCRP substrate assay, bidirectional permeability in MDCKII-BCRP cells. The note with it: 10 μM, MDCKII-BCRP vs MDCKII-WT, ± Ko134. In kind it is in vitro ADME. As to the method:
as §1, §2

For data set [6], the target named is T3, BCRP. Put plainly: BCRP inhibition assay, Hoechst 33342 accumulation in MDCKII-ABCG2 cells. In kind it is cell-based. The note with it: Hoechst 33342, MDCKII-ABCG2 cells. As to the method: as §3
A further data set has as its system cytochrome P450 enzymes. As to conditions: in vitro or in vivo in humans.
Data set [7] deals with UDP-glucuronosyltransferases. Briefly: UDP-glucuronosyltransferase interaction. In kind it is in vitro ADME, human. As to conditions: in vitro or in vivo in humans.
For data set [8] the following is noted: in vivo.
For data set [9] the following is noted: 25° C., relative humidity of 90%. As to the method: DVS analysis was conducted using 4.951 mg of tenofovir alafenamide hemifumarate. The material was kept at 25° C. in nitrogen at humidities ranging from 10% to 90% relative humidity: each step was equilibrated for 120 minutes.
For data set [10] the following is noted: for thermodynamic stability in solvents: toluene, MTBE, acetone, THF, 2-methyl THF.
On data set [11], the source says:
Chemical stability of the hemifumarate form of tenofovir alafenamide was compared with the monofumarate form. […] Conditions evaluated include temperature, relative humidity (RH), and the open or closed state of the container cap.

The mark [12] stands for this setting: 40° C./75% RH Cap Closed, 0 weeks.
[13] abbreviates: 40° C./75% RH Cap Closed, 1 week.
The mark [14] stands for this setting: 40° C./75% RH Cap Closed, 2 weeks.
The mark [15] stands for this setting: 40° C./75% RH Cap Closed, 4 weeks.
Where [16] appears, read: 40° C./75% RH Cap Closed, 8 weeks.
Where [17] appears, read: 40° C./75% RH Cap Open, 0 weeks.
Setting [18] is: 40° C./75% RH Cap Open, 2 weeks.
Where [19] appears, read: 40° C./75% RH Cap Open, 4 weeks.
[20] abbreviates: 40° C./75% RH Cap Open, 8 weeks.

Sequence of CYP2D6 (P10635 whole entry): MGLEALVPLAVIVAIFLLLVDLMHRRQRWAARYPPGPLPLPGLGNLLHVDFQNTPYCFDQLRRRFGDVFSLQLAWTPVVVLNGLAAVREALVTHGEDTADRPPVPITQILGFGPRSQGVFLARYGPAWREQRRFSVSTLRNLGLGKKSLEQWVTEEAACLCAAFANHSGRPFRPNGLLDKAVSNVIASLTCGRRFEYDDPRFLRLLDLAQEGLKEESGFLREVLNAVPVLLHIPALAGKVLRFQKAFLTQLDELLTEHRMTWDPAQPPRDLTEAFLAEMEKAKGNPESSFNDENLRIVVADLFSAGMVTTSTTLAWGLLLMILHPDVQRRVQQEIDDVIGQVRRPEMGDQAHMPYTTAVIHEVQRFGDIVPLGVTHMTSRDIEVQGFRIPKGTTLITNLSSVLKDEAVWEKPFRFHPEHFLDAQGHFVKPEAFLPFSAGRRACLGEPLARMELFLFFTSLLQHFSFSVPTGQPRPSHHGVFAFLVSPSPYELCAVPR
Sequence of uridine glucuronosyltransferase 1A1 (P22309 26-533): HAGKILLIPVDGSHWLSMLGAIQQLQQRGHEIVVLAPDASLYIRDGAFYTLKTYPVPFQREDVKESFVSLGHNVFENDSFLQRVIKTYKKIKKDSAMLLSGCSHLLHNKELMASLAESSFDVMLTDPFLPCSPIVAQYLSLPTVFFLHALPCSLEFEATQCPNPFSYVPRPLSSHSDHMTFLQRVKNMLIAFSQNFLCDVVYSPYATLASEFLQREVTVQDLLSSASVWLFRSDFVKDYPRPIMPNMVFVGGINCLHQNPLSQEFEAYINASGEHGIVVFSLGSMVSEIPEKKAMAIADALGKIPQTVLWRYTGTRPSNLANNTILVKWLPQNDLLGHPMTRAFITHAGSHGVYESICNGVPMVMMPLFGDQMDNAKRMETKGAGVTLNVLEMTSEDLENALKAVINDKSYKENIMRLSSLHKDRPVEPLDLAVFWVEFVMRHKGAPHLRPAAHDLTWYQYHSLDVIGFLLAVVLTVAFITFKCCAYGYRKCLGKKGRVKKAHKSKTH
Sequence of CYP1A2 (P05177 whole entry): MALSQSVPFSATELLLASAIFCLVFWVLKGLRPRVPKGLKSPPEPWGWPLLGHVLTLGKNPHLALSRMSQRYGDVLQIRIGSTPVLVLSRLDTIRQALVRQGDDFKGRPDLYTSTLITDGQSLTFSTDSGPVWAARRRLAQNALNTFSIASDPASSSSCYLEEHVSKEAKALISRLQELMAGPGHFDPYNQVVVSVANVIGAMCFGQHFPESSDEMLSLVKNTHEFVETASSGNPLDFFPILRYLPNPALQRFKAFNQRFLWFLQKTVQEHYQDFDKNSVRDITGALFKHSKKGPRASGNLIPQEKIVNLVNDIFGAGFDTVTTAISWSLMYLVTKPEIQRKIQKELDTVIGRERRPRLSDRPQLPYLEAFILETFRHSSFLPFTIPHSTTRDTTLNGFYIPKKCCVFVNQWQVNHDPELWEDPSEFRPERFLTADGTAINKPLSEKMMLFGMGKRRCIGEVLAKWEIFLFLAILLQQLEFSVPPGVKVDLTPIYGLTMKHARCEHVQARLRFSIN

By IC50 is commonly meant the concentration that gives 50% inhibition. For `CC(C)c1nc(CN(C)C(=O)N[C@@H](CCN2CCOCC2)C(=O)N[C@H](CC[C@H](Cc2ccccc2)NC(=O)OCc2cncs2)Cc2ccccc2)cs1` [cobicistat, 1,3-thiazol-5-ylmethyl (2R,5R)-(5-{[(2S)-2-[(methyl{[2-(propan-2-yl)-1,3-thiazol-4-yl]methyl}carbamoyl)amino]]-4-(morpholin-4-yl)butanamido}-1,6-diphenylhexan-2-yl)carbamate], the “inhibition of uridine glucuronosyltransferase 1A1” value in [1] was “does not appreciably inhibit”. Moreover, the “potential as inducer of cytochrome P450, UGT1A1, or P-glycoprotein” value in data set [2] is recorded as “no/weak potential as an inducer”. Moreover, the “substrate or inhibitor of transporters” value in [3] is reported as “not a strong substrate or inhibitor”. In addition, at CYP2B6, the “inhibition of CYP2B6” value was “moderate inhibitor”. Moreover, the “inhibition of CYP2C9” value on CYP2C9 is reported as “does not appreciably inhibit”. The “inhibition of CYP2C8” value against CYP2C8 is “does not appreciably inhibit”. In addition, in data set [4], the “substrate for Pgp” value was “substrate”. The “effect on A-B flux of GS-7340” value in the data set on caco-2 cell monolayers is listed as “increased the A-B flux”. Moreover, in the data set on caco-2 cell monolayers, the “effect on B-A flux of GS-7340” value is “reducing B-A flux”. Further, the “inhibition of CYP2D6” value against CYP2D6 is recorded as “weak inhibitor”. Besides, the IC50 at Pgp is 36 ± 10 µM; on BCRP [6], 59 ± 28 µM. For the same compound, the “inhibition of CYP1A2” value against CYP1A2 was “does not appreciably inhibit”. For the same compound, the “inhibition of CYP2C19” value against CYP2C19 is “does not appreciably inhibit”. Further, the “substrate for BCRP” value at BCRP [5] is recorded as “substrate”.
With `C[C@H](Cn1cnc2c(N)ncnc21)OCP(=O)(O)O` [tenofovir, 9-R-[(2-phosphonomethoxy)propyl]adenine], the “interaction with human cytochrome P450 enzymes as substrate, inhibitor, or inducer” value in the data set with cytochrome P450 enzymes is reported as “does not interact significantly”. The “interaction with UDP-glucuronosyltransferases as substrate, inhibitor, or inducer” value in data set [7] was “does not interact significantly”. Further, the “systemic exposure equivalent, fold higher than a dose of tenofovir alone” value in data set [8] fell in the range of 3 to 4 fold.
In data set [9], tenofovir alafenamide hemifumarate had a water absorbed of 0.65%. In addition, the “thermodynamic stability in solvents” value in data set [10] (ACN, ethyl acetate) is given as “thermodynamically stable in most solvents”. Also, the “% TA Area Normalized” value in [11] (setting [12]) is reported as 98.4%; in [11] (setting [13]) it was 98.4%; in [11] (setting [14]) it was 98.5%; in data set [11] (setting [15]), 98.4%; in data set [11] (setting [16]), 98.0%; in data set [11] (setting [17]), 98.4%. In addition, the “% TA Area Normalized” value is 98.5% in data set [11] (40° C./75% RH Cap Open, 1 week); 98.5% in data set [11] (setting [18]); 98.4% in data set [11] (setting [19]); 98.1% in data set [11] (setting [20]); 98.4% in data set [11] (70° C. Cap Closed, 0 weeks); 98.5% in data set [11] (70° C. Cap Closed, 2 weeks). In data set [11] (70° C. Cap Closed, 4 weeks), the “% TA Area Normalized” value turned out to be 98.4%. For the same compound, the “% Total Deg. Products” value stood at 0.05% in [11] (setting [12]); 0.14% in data set [11] (setting [13]); 0.14% in data set [11] (setting [14]); 0.25% in [11] (setting [15]); 0.49% in [11] (setting [16]); 0.05% in data set [11] (setting [17]). Moreover, the “% Total Deg. Products” value in [11] (40° C./75% RH Cap Open, 1 week) was determined as 0.15%; in [11] (setting [18]), 0.14%; in data set [11] (setting [19]), 0.26%; in data set [11] (setting [20]), 0.50%; in data set [11] (70° C. Cap Closed, 0 weeks) it was 0.05%; in [11] (70° C. Cap Closed, 2 weeks), 0.22%. Further, in data set [11] (70° C. Cap Closed, 4 weeks), the “% Total Deg. Products” value came out at 0.33%.
On to “tenofovir alafenamide monofumarate [Monofumarate form]”, for which the “form conversion when suspended in solvent” value in data set [10] (ACN, ethyl acetate, MTBE, and acetone) is recorded as “partially converts to the hemifumarate form”; in [10] (THF and 2-methyl THF), “fully converts to the hemifumarate form”. Further, in data set [10] (ACN, ethyl acetate), the “thermodynamic stability in solvents” value is listed as “not thermodynamically stable”. The “% TA Area Normalized” value in data set [11] (setting [12]) is reported as 97.1%; in data set [11] (setting [13]), 97.0%; in data set [11] (setting [14]), 96.6%; in data set [11] (setting [15]), 96.4%; in [11] (setting [16]) it was 95.4%; in [11] (setting [17]) it was 97.1%. Moreover, the “% TA Area Normalized” value in data set [11] (40° C./75% RH Cap Open, 1 week) was 96.9%; in data set [11] (setting [18]) it was 96.6%; in data set [11] (setting [19]), 96.2%; in data set [11] (setting [20]), 95.0%; in [11] (70° C. Cap Closed, 0 weeks) it was 97.1%; in data set [11] (70° C. Cap Closed, 2 weeks), 96.2%. Further, the “% TA Area Normalized” value in [11] (70° C. Cap Closed, 4 weeks) worked out at 93.3%. Besides, the “% Total Deg. Products” value in data set [11] (setting [12]) is reported as 0.69%; in [11] (setting [13]) it was 0.87%; in [11] (setting [14]) it was 1.18%; in data set [11] (setting [15]), 1.49%; in data set [11] (setting [16]), 2.36%; in [11] (setting [17]), 0.69%. The “% Total Deg. Products” value in data set [11] (40° C./75% RH Cap Open, 1 week) was 0.90%; in data set [11] (setting [18]), 1.10%; in data set [11] (setting [19]) it was 1.67%; in data set [11] (setting [20]), 2.74%; in [11] (70° C. Cap Closed, 0 weeks) it was 0.69%; in data set [11] (70° C. Cap Closed, 2 weeks) it was 1.83%. Besides, the “% Total Deg. Products” value in data set [11] (70° C. Cap Closed, 4 weeks) was 4.78%.
